Earlier results on 4 molecules are cited in patent US20240418706A1, “QUANTIFICATION OF CIRCULATING REGENERATIVE AND ENDOTHELIAL PROGENITOR CELLS AS PREDICTORS OF HEALTH STATUS” (priority 2022, published 2024).

The conditions of series [1]: >17,000 healthy persons without hyperlipidemia but with elevated high-sensitivity C-reactive protein.
For series [2], the system named is circulating EPC. To be noted: in vivo.
For series [3], the system named is circulating EPC. Conditions: lipid lowering therapy.
In series [4] the test system is endothelial responsiveness.
For series [5] the following is noted: 6 days of G-CSF at 10 μg/kg.
The conditions of series [6]: 114 patients, 56 treated and 58 control.
The conditions of series [7]: 41 patients with large anterior wall AMI.
Another series deals with EPC. To be noted: in vivo.

Where two headings read alike, the source gives them in different places.

On to `CC(C)c1nc(N(C)S(C)(=O)=O)nc(-c2ccc(F)cc2)c1/C=C/[C@@H](O)C[C@@H](O)CC(=O)O` [Crestor], for which, in series [1], the CRP levels result is reported as “lowering CRP levels” and the “incidence of major cardiovascular incidents” value is “significantly reduced”. Also, the “circulating EPC levels” value in the series on circulating EPC [2] is on record as “increase circulating EPC levels”.
`CC(C)c1c(C(=O)Nc2ccccc2)c(-c2ccccc2)c(-c2ccc(F)cc2)n1CC[C@@H](O)C[C@@H](O)CC(=O)O` [atorvastatin]: in the series with circulating EPC [3], the “circulating EPC” value is reported as “increase circulating EPC” and the oxidative stress entry was “reduced oxidative stress”.
As to “growth hormone: growth hormone, used in "antiaging medicine"”, the endothelial responsiveness entry in series [4] (healthy volunteers) and in series [4] (patients with congestive heart failure) was “improve endothelial responsiveness” each time.

B1: G-CSF: Granulocyte colony stimulating factor, used clinically for mobilization of hematopoietic stem cells (protein, UniProt P09919 31-207, looked up)
Granulocyte …: TPLGPASSLPQSFLLKCLEQVRKIQGDGAALQEKLVSECATYKLCHPEELVLLGHSLGIPWAPLSSCPSQALQLAGCLSQLHSGLFLYQGLLQALEGISPELGPTLDTLQLDVADFATTIWQQMEELGMAPALQPTQGAMPAFASAFQRRAGGVLVASHLQSFLEVSYRVLRHLAQP
Consider B1, for which the “myocardial wall at the area of infarct” value in series [5] (four months after the infarct, sustained over a year, compared to controls) is listed as “thicker myocardial wall”. Also, in series [5] (in comparison to controls), the ejection fraction entry is “Statistically significant improvements” and the pathological remodeling entry is reported as “inhibition of pathological remodeling”. Besides, the “infarct size, left ventricular function, or coronary restenosis” value in series [6] was “no influence”. In series [7], the LVEF entry is listed as “improvement in LVEF” and the pathological remodeling result is on record as “diminished pathological remodeling”. In addition, the “mobilization of EPC” value with EPC was “stimulates mobilization of EPC”.
